Test results: article PMC9229294, “Pyridazinones and Structurally Related Derivatives with Anti-Inflammatory Activity” (Molecules, 2022)
Like-named read-outs stand apart in the source and are kept apart here.

Tests used:
[1] = test system: LPS-induced NF-κB activity in THP1-Blue cells; assay: Inhibition of LPS-induced NF-κB transcriptional activity, alkaline phosphatase reporter, THP1-Blue cells; format: cell-based, human; conditions: for IC50: LPS-induced NF-κB activity, human THP1-Blue cells, N.A. = no activity at 50 µM; for Inhibition of LPS-induced NF-κB activity (in words): THP1-Blue cells; for Observed class for inhibition of NF-κB activity: experimentally observed, Active or N.A.
Method: (§1) Our studies included 175 compounds that were previously synthesized and characterized at NEUROFARBA, Pharmaceutical and Nutraceutical Section, University of Florence, Italy. We previously evaluated the FPR1/FPR2 agonist activity of these compounds by evaluating their ability to induce Ca^2+ mobilization in FPR-transfected HL60 cells and human neutrophils. […] All test compounds were dissolved in DMSO at stock concentrations of 10 mM and stored at −20 °C. For primary screening assays (analysis of NF-κB activation, IL-6 production, and cytotoxicity), the following final concentrations of the compounds were used: 3.125, 6.25, 12.5, 25, and 50 µM; the final concentration of DMSO was 1% in all samples.
The activation of NF-κB was measured using an alkaline phosphatase reporter assay in human monocytic THP1-Blue cells stably transfected with a secreted embryonic alkaline phosphatase gene that is under the control of a promoter inducible by the NF-κB. The THP1-Blue cells (2 × 10^5 cells/well) were pretreated with the test compound or DMSO for 30 min, followed by an addition of 250 ng/mL LPS for 24 h. Alkaline phosphatase activity was determined in cell supernatants using a QUANTI-Blue mix (InvivoGen) and measured at 655 nm and compared with positive control samples (LPS).

[2] = Cytotoxicity, CellTiter-Glo, THP1-Blue cells; format: cell-based, human; conditions: human, THP1-Blue cells
Method: as §1
The cytotoxicity was analyzed with a CellTiter-Glo Luminescent Cell Viability Assay Kit from Promega (Madison, WI, USA), according to the manufacturer’s protocol. The luminescent ATP assays are based on a luciferase enzymatic reaction which uses ATP from viable cells to generate photons. For this assay, the cells were incubated with the compounds under investigation for 24 h. After treatment, the cells were equilibrated to room temperature for 30 min, luciferase + luciferin substrate was added, and the samples were analyzed with a Fluoroscan Ascent FL (Thermo Fisher Scientific, Waltham, MA, USA). The IC50 values were calculated by plotting the percentage inhibition against the logarithm of the inhibitor concentration (at least five points).

FPR2 = target: T1, FPR2 (Homo sapiens, UniProt P25090); conditions: FPR2-transfected HL-60 cells; agonist activity from Table 1; read-out: Ca2+ Mobilization FPR2 EC50 in HL-60 Cells; cited from earlier work
T1 construct: expressed in transfected cells; host or cells: HL-60 cells (FPR2-HL60)
T1 sequence (P25090 1-351): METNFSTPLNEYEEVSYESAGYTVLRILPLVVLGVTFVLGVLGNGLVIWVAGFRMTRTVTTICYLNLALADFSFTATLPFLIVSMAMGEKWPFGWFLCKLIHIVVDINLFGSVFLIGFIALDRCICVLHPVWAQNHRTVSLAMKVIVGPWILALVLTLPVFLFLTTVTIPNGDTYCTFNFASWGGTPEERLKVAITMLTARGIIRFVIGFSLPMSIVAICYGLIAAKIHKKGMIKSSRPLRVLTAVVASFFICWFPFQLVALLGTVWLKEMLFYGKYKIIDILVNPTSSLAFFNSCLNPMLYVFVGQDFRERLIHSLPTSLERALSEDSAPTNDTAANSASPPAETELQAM

FPR1 = target: T2, FPR1 (Homo sapiens, UniProt P21462); conditions: FPR1-transfected HL-60 cells; agonist activity from Table 1; read-out: Ca2+ Mobilization FPR1 EC50 in HL-60 Cells; cited from earlier work
T2 construct: expressed in transfected cells; host or cells: HL-60 cells (FPR1-HL60)
T2 sequence (P21462 1-350): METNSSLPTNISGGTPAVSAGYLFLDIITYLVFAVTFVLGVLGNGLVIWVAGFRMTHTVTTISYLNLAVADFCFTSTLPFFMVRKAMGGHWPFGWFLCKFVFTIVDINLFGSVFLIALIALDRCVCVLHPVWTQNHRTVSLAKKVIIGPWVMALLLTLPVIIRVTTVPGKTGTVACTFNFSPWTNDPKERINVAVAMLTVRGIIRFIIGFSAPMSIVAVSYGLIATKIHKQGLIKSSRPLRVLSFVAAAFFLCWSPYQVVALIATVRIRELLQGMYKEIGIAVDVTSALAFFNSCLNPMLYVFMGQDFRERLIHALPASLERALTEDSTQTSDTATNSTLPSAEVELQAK

[3] = test system: LPS-induced IL-6 production in MonoMac-6 cells; assay: Inhibition of LPS-induced IL-6 production in MonoMac-6 cells (ELISA); format: cell-based, human; conditions: MonoMac-6 cells, 250 ng/mL LPS, 24 h
Method: as §1
A human IL-6 ELISA kit (BD Biosciences, San Jose, CA, USA) was used to measure IL-6 production. […] The cells were pretreated with the test compound or DMSO for 30 min, followed by addition of 250 ng/mL LPS for 24 h. The IC50 values for IL-6 production were calculated by plotting the percentage inhibition against the logarithm of the inhibitor concentration (at least five points).

[4] = N.T. = no cytotoxicity at 50 µM, read-out: Cytotoxicity IC50 in THP1-Blue Cells

Compound | IC50 [1] | Inhibition of LPS-induced NF-κB activity (in words) ([1]; 250 ng/mL LPS, 24 h) | IC50 at 24 h [2, 4] | IC50 ([1]; Homo sapiens) | Observed class for inhibition of NF-κB activity [1] | EC50 (FPR2) | EC50 (FPR1) | IC50 at 24 h ([2]; 24 h, read-out: Cytotoxicity IC50) | Inhibition of LPS-induced NF-κB activity (in words) ([1]; peptide at 5 nM) | Inhibition of LPS-induced IL-6 production (in words) [3]
CC(C)c1c(NC(=O)Nc2ccc(Cl)cc2)c(=O)n(-c2ccccc2)n1C [Cmpd43, N-(4-chlorophenyl)-N′-(5-isopropyl-1-methyl-3-oxo-2-phenyl-2,3-dihydro-1H-pyrazol-4-yl)urea, reference compound] | > 50 µM | did not inhibit | > 50 µM | – | – | – | – | – | – | –
COc1cccc(Cc2cc(C)nn(CC(=O)Nc3ccc(Br)cc3)c2=O)c1 [Compound 1] | – | inactive | – | – | – | – | – | – | – | –
COc1cccc(Cc2cc(C)nn(CC(=O)Nc3ccc([N+](=O)[O-])cc3)c2=O)c1 [Compound 5] | – | – | > 50 µM | 46.1 ± 1 µM | Active | – | – | – | – | –
COc1cccc(Cc2cc(C)nn(CC(=O)Nc3ccc(F)cc3)c2=O)c1 [Compound 15] | – | – | > 50 µM | 33.6 ± 2.1 µM | Active | – | – | – | – | –
COc1ccc(-c2cc(C)nn(CC(=O)Nc3ccc(Br)cc3)c2=O)cc1 [Compound 19] | – | inactive | – | – | – | – | – | – | – | –
Cc1cc(Cc2ccccc2)c(=O)n(CC(=O)Nc2ccc(Br)cc2)n1 [Compound 30] | – | – | > 50 µM | 28.4 ± 5.7 µM | Active | – | – | – | – | –
COc1ccc(Cc2cc(-c3ccc(F)cc3)nn(CC(=O)Nc3ccc(Br)cc3)c2=O)cc1 [Compound 49] | – | – | > 50 µM | 34.5 ± 2.1 µM | Active | > 50 µM | > 50 µM | – | – | –
COc1ccc(N(c2ccc(OC)cc2)c2cc(C)nn(CC(=O)Nc3ccc(Br)cc3)c2=O)cc1 [Compound 50] | – | – | > 50 µM | 32.8 ± 0.7 µM | Active | > 50 µM | > 50 µM | – | – | –
Cc1cc(Cc2cccc(F)c2)c(=O)n(CC(=O)Nc2ccc(Br)cc2)n1 [Compound 64] | – | – | > 50 µM | 27.9 ± 2.1 µM | Active | – | – | – | – | –
Cc1cc(Cc2ccc(C(F)(F)F)cc2)c(=O)n(CC(=O)Nc2ccc(Br)cc2)n1 [Compound 66] | – | – | 26.4 ± 4.7 µM | 31.5 ± 2.2 µM | Active | > 50 µM | > 50 µM | 22 to 26 µM | – | –
Cc1cc(-c2ccccc2)nn(CC(=O)Nc2ccc(Br)cc2)c1=O [Compound 67] | – | active | > 50 µM | 30.9 ± 2.3 µM | – | 10.1 µM | 21.5 µM | – | – | –
CCC(C(=O)Nc1ccc(Br)cc1)n1nc(C)cc(Cc2cccc(OC)c2)c1=O (stereo not shown) [Compound 88] | – | – | > 50 µM | 39.4 ± 4.2 µM | – | 2.2 µM | 1.3 µM | – | – | –
CCC(C)(C(=O)Nc1ccc(Br)cc1)n1nc(C)cc(Cc2cccc(OC)c2)c1=O (stereo not shown) [Compound 90] | – | – | > 50 µM | 39.2 ± 6.7 µM | – | 2.1 µM | 1.5 µM | – | – | –
CCCCOc1ccc(-c2c(OC)cnn(Cc3ccc(OC)cc3)c2=O)cc1 [Compound 109] | – | – | > 50 µM | 31.3 ± 1.6 µM | Active | > 50 µM | > 50 µM | – | – | –
COc1cccc(Cc2cc(C)nn(CCNC(=O)Nc3ccc(Br)cc3)c2=O)c1 [Compound 113] | – | – | > 50 µM | 37 ± 0.4 µM | Active | – | – | – | – | –
CC1CC(c2ccccc2)=NN(CC(=O)Nc2ccc(F)cc2)C1=O (stereo not shown) [Compound 122] | – | – | > 50 µM | 46.3 ± 2.4 µM | – | > 50 µM | > 50 µM | – | – | –
CC1CC(c2ccccc2)=NN(CC(=O)Nc2ccc(Br)cc2)C1=O (stereo not shown) [Compound 124] | – | – | > 50 µM | 42.7 ± 0.3 µM | – | 10.7 µM | 19.5 µM | – | – | –
COc1ccc2c(c1)c(CC(=O)Nc1ccc(Br)cc1)c(C)n2C(=O)c1ccc(Cl)cc1 [Compound 133] | – | inactive | – | – | – | – | – | – | – | –
COc1cccc(Cn2cc(CC(=O)Nc3ccc(Br)cc3)c3ccccc32)c1 [Compound 134] | – | inactive | – | – | – | – | – | – | – | –
Cc1ccc(-n2ccc(=O)n(CC(=O)Nc3ccc(Br)cc3)c2=O)cc1 [Compound 149] | – | – | > 50 µM | 43 ± 3.9 µM | Active | 14.9 µM | 13.6 µM | – | – | –
COc1ccc(Nc2c(C#N)cnn2CC(=O)Nc2ccc(Br)cc2)cc1 [Compound 156] | – | – | > 50 µM | 25 ± 0.4 µM | Active | > 50 µM | > 50 µM | – | – | –
COc1cccc(-c2nn(CC(=O)Nc3ccc(Br)cc3)c(C)c2C#N)c1 [Compound 160] | 28.8 ± 2 µM | – | > 50 µM | – | Active | 4.8 µM | 8.2 µM | – | – | –
COc1cccc(Nc2cn(-c3ccccc3)n(CC(=O)Nc3ccc(Br)cc3)c2=O)c1 [Compound 164] | – | – | > 50 µM | 35.7 ± 1.9 µM | Active | > 50 µM | 29 µM | – | – | –
O=C(Cn1c(-c2ccc(Cl)cc2)csc1=O)Nc1ccc(Br)cc1 [Compound 168] | – | – | > 50 µM | 43.4 ± 4.2 µM | Active | 2.4 µM | 2.8 µM | – | – | –
N-formyl-Met-Leu-Phe [fMLF, reference compound] | – | – | – | – | – | – | – | – | did not inhibit | did not affect
